These results are taken from patent US20070225240A1, “Screening Assay and Treatment” (priority 2003, published 2007).

Read-outs that look alike come from different tables or passages of the source.

Test [1] has as its system ASPP2. Conditions: MCF7, 20% FCS and EGF, cycloheximide 50 μg/ml, with versus without UO126. Here is the method:
(§1) Wild-type ASPP2 (A) or mutant ASPP2 (S827A) (B) were transfected in Saos2 cells in the presence or absence of H-rasv12. 16 hours after transfection, the cells were treated with cycloheximide (50 μg/ml) and lysates were made at the times indicated after cycloheximide treatment. The expression of ASPP2 and H-rasV12 were detected with antibodies V5 or HA, respectively. Actin was used as a loading control. (C) MCF7 cells were starved of serum for 24 hours in 0.5% FCS before treatment with 50 μg/ml cycloheximide (CHX) and 20% FCS and EGF, in the presence (right panel) or absence (left panel) of UO126 for the times indicated. 4 mg of lysate was immunoprecipitated with anti-ASPP2 antibody DX54.10 and the presence of ASPP2 was detected by Western blot with the polyclonal ASPP2/77 antibody (top lanes). Phosphorylated MAPK was detected with phospho-specific MAPK antibody and the total MAPK was detected with a MAPK antibody. The intensity of the. ASPP2 protein immunoprecipitated was quantified and the bands at 0 hours of CHX addition was set as 100 for both cells, as shown by the graph (right panel). (D) MDA Panc3 cells were treated with 50 μg/ml cycloheximide, 20 μM UO126 or both cycloheximide and UO126 for the times indicated. The lysate was resolved on SDS-PAGE gels and ASPP1 and ASPP2 protein levels were detected with mAbASPP1.54.2 and DX54.10 antibodies, respectively, and Mcl-1 was detected with an anti-Mcl1 polyclonal antibody.
(§2) Cells were either transfected with the appropriate expression plasmids or treated with 20 ng/ml EGF and 20 μM UO126 as indicated, the day prior to cycloheximide treatment. Cycloheximide was added to cells at a final concentration of 50 μg/ml in the appropriate medium. Cells were harvested and lysed at the time points indicated.

A further test concerns ASPP1 and ASPP2. The procedure:
as §1, §2

Test [2] deals with transactivation function of p53. In words: Transactivation assay, bax-luciferase reporter, Saos2 cells. It is filed as cell-based. The conditions noted are these: EGF 20 ng/ml + 20% FCS, UO126 20 μM. Here is the method:
FIG. 27 Endogenous MAPK is necessary for ASPP1 and ASPP2 to stimulate the activity of p53. (A) Saos2 cells were co-transfected with bax-luciferase, ASPP2 and p53. After transfection, medium containing EGF (20 ng/ml) and 20% FCS were added to the cells, in the presence or absence of the MAPK inhibitor UO126 (20 μM). The negative control contained an equal volume of DMSO. […] (B) The putative MAPK phosphorylation sites of ASPP1 and ASPP2 were mutated to alanine, to generate ASPP1 (S671A), ASPP1 (S746), ASPP2 (S698A) and ASPP2 (S827A). Wild-type and mutant ASPP2 (B) or ASPP1 (C) were co-transfected with p53 and Bax-luciferase reporter in the presence or absence of RafCX (B) or K-rasV12 (C) in Saos2 cells, as indicated. Expression levels of ASPP1, p53 and K-rasV12 are shown in the right panel. PCNA was used as a loading control. The graph represents the fold over p53 and ASPP1 or ASPP2 taken from three independent experiments. FCS, foetal calf serum; EGF, epidermal growth factor; and
Saos2 cells (7×10^5) were plated 24 hours prior to transfection in 6-cm-diameter dishes. All transactivation assays contained 1 μg of reporter plasmid. […] The fold increase of p53 and ASPP by HRasV12/K-RasV12/RafCX was determined by the activity of p53 and ASPP in combination with RasV12/RafCX divided by the activity of p53 and ASPP alone.
(A reporter such as luciferase makes a cellular process visible.)

Test [3] relates to ASPP2. The conditions noted are these: cells treated with UO126, cell line not stated.
The mark [4] stands for this setting: MDA Panc3, cycloheximide 50 μg/ml + UO126 20 μM compared to cycloheximide alone.

As to `N#CC(=C(/N)Sc1ccccc1N)/C(C#N)=C(/N)Sc1ccccc1N` [UO126], the ASPP2 protein levels entry in the test with ASPP2 [1] is on record as “significantly decreased”. In addition, in the test on ASPP1 and ASPP2 (setting [4]), the ASPP1 expression levels result is “significantly decreased” and the ASPP2 expression levels result is “significantly decreased”. Also, the “Mcl-1 stability (control)” value in the test with ASPP1 and ASPP2 (MDA Panc3, cycloheximide, presence or absence of UO126) is recorded as “no difference in its stability”. In addition, the “transactivation function of p53 when ASPP2 was present” value in test [2] (p53 + ASPP2) is “significantly inhibited”. Besides, in test [2] (p53 without ASPP2), the “transactivation function of p53 alone” value is “small effect”. Further, the ASPP2 protein levels result with ASPP2 [3] is “decrease in ASPP2 protein levels”.
